119 molecules from a melting point compilation (Tetko et al.) can be followed below.

`Cc1ccc2c(n1)OCCN2` registered a melting point of 109 to 111 °C.

In turn, `Cc1cc(-c2ccccc2)nc(S)n1` displayed a melting point of 208 to 210 °C.

`COc1cc(NC(=O)Cc2cccs2)c(C(=O)O)cc1OC` registered a melting point of 195 to 197 °C.

`CC(=O)N1CCN(CCC(=O)O)CC1` had a melting point of 114 to 116 °C.

In the case of `CCOC(=O)CN1C(=O)C(=O)c2ccccc21`, the melting point lay in the range of 127 to 129 °C.

In turn, `Cc1cccc(N2CCN(c3ccc(C#N)cn3)CC2)c1` gave a melting point of 121 to 123 °C.

`O=C1COc2cccc(O)c2N1` showed a melting point of 247 to 249 °C.

In turn, `O=Cc1cc(C23CC4CC(CC(C4)C2)C3)n[nH]1` gave a melting point of 134 to 136 °C.

In turn, `O=C(O)C(Nc1ccccc1)c1ccccc1F` (centres undefined) gave a melting point of 115 to 117 °C.

The molecule `O=C(O)c1ccc(F)c(I)c1` returned a melting point of 169 to 171 °C.

For the molecule `CCOC(=O)COc1ccc(Br)cc1F`, the melting point was in the range of 30 to 32 °C.

Turning to `CCCn1c(C)nnc1S`, the melting point lay within 129 to 131 °C.

With `O=C(O)CCc1nnc(-c2ccccn2)o1`, the melting point fell in the range of 191 to 193 °C.

`Cc1cc(Nc2nc3ccccc3nc2Cl)n(-c2ccccc2)n1` had a melting point of 178 to 180 °C.

As to `O=C1Nc2cc3c(cc2C1=O)OCCCO3`, the melting point lay within 230 to 232 °C.

As for `COC(=O)c1cc(Cl)c2ccccc2n1`, the melting point lay within 121 to 123 °C.

Molecule `CCOc1cc(Br)c(CC#N)cc1OCC` gave a melting point of 68 to 70 °C.

Regarding `Cc1nsc(Nc2ccccc2)c1C#N`, the melting point is 172 to 174 °C.

As to `CCOC(=O)c1cnn(-c2ccc(C(=O)O)cc2)c1C`, the melting point was 201 to 203 °C.

Consider `COc1ccc(S(=O)(=O)N2CCC(=NO)CC2)cc1`, for which the melting point is 164 to 166 °C.

Take `CCC1(c2ccccc2)NC(=O)NC1=O` (centres undefined): the melting point was in the range of 203 to 205 °C.

In the case of `O=C(O)c1cccc(NC(=O)c2ccc(Br)cc2)c1`, the melting point fell in the range of 306 to 308 °C.

`CC(CC(=O)c1cccc(Br)c1)C(=O)O` (centres undefined): the melting point was in the range of 95 to 97 °C.

For `CC(C)Oc1cc(Br)cc(C(=O)O)c1`, the melting point lay in the range of 126 to 128 °C.

Regarding `O=C(O)c1oc2ccccc2c1CSc1cccs1`, the melting point was in the range of 166 to 168 °C.

For the molecule `O=C(Cc1ccccc1)C[N+](=O)[O-]`, the melting point was in the range of 48 to 50 °C.

`O=C(CCl)NC1CCC(C(F)(F)F)CC1` (centres undefined) gave a melting point of 65 to 67 °C.

`N#Cc1ccc(Cl)cc1NC1CCCC1`: the melting point fell in the range of 74 to 76 °C.

In turn, `Cc1cccc(C)c1NC(=O)CN1CCNCC1` returned a melting point of 53 to 55 °C.

`O=C(O)C1CCCCN1S(=O)(=O)c1ccc(Br)cc1` (centres undefined) had a melting point of 133 to 135 °C.

`CN1C(=O)CC(C(N)=O)C1c1cccc(Cl)c1` (centres undefined): the melting point was in the range of 188 to 190 °C.

Turning to `Nc1ccc(F)c(-n2nnnc2C2CC2)c1`, the melting point fell in the range of 93 to 95 °C.

With `NC(=O)C(O)C1CCOC1` (centres undefined), the melting point lay in the range of 84 to 86 °C.

Molecule `Clc1cc(Cl)cc(-c2nnc(Br)s2)c1` came in with a melting point of 154 to 156 °C.

As to `Cn1ccnc1C(O)CCc1ccccc1` (centres undefined), the melting point is 101 to 103 °C.

The molecule `COc1ccc(OC)c(N2CC(C(=O)O)CC2=O)c1` (centres undefined) displayed a melting point of 100 to 102 °C.

`Cc1cc(N)n(-c2ccc(F)cc2)n1` came in with a melting point of 109 to 111 °C.

For `Cc1cc(Cl)n2c(nc3ccccc32)c1C#N`, the melting point lay within 210 to 212 °C.

`NCc1cc2c([nH]c1=O)CCC2`: the melting point fell in the range of 129 to 131 °C.

In turn, `CC(C)(C)[Si](C)(C)Oc1cc(C(=O)O)cc2ccccc12` registered a melting point of 153 to 155 °C.

`O=C1CNCCN1Cc1ccc(Cl)cc1`: the melting point lay within 83 to 85 °C.

As to `COc1ccc(/C=C/C(=O)O)cc1S(=O)(=O)NC(C)C`, the melting point lay within 202 to 204 °C.

Turning to `Nc1ccc(S(=O)(=O)Nc2ccc(Cl)c(Cl)c2)cc1`, the melting point lay in the range of 223 to 225 °C.

For the molecule `CN(C)S(=O)(=O)c1cc(C(=O)O)n(C)c1`, the melting point was in the range of 159 to 161 °C.

`CNc1ncc(C(=O)OC)s1`: the melting point was in the range of 115 to 117 °C.

Take `N#CCC(=O)c1ccc(F)c(C(F)(F)F)c1`: the melting point lay within 51 to 53 °C.

With `CC(C)(C)OC(=O)CNc1ccc2c(c1)OCO2`, the melting point fell in the range of 70 to 72 °C.

For `O=C(O)c1ccccc1NS(=O)(=O)C(F)(F)F`, the melting point fell in the range of 164 to 166 °C.

Take `Cc1ccc(-c2nc(CCl)co2)cc1`: the melting point fell in the range of 97 to 99 °C.

The molecule `CCOc1ccc(NC(=O)CCl)cc1S(=O)(=O)N1CCCCC1` gave a melting point of 129 to 131 °C.

On to `CCCC(=O)N1CCCC1C(=O)O` (centres undefined), for which the melting point fell in the range of 115 to 117 °C.

Molecule `O=C(Cn1ccnc1)c1cccc(F)c1` returned a melting point of 113 to 115 °C.

Take `O=C(O)CCCc1nnc(-c2ccccc2I)o1`: the melting point is 69 to 71 °C.

The molecule `Cc1nc2ccccc2c(C)c1C(=O)O` returned a melting point of 186 to 188 °C.

In the case of `Nc1ccc(C(=O)Nc2cccnc2)cc1`, the melting point lay within 212 to 214 °C.

Turning to `Clc1cc(C2CC2)nc2ncnn12`, the melting point is 99 to 101 °C.

The molecule `COc1cc(C=O)cc(OC)c1OCC(N)=O` yielded a melting point of 165 to 167 °C.

The molecule `CC1=NN(c2cccc(Br)c2)C(=O)C1CC(=O)O` (centres undefined) had a melting point of 201 to 203 °C.

For `O=C(O)Cc1ccc([N+](=O)[O-])cc1Br`, the melting point is 164 to 166 °C.

`CC(C)n1cc(Br)cc1C(=O)O` came in with a melting point of 148 to 150 °C.

`O=C(O)Cc1csc(N2CCCNC2=O)n1` showed a melting point of 184 to 186 °C.

`CC(C)(C)OC(=O)N1CCC(N2CC(O)C2)CC1` displayed a melting point of 91 to 93 °C.

`Cc1cc(=O)[nH][nH]1` had a melting point of 223 to 225 °C.

In turn, `Nc1nc(CCl)nc(Nc2ccc(F)cc2)n1` had a melting point of 170 to 172 °C.

As to `Nc1ccc(-c2nc3ccccc3[nH]2)cn1`, the melting point is 352 to 354 °C.

Molecule `CC(C)(C)OC(=O)NCc1nc(-c2ccc(N)cc2)n[nH]1` registered a melting point of 214 to 216 °C.

`NS(=O)(=O)c1ccc(NCCC(=O)O)c([N+](=O)[O-])c1` gave a melting point of 175 to 177 °C.

In the case of `O=C(O)c1ccc(Nc2ncnc3ccccc23)cc1`, the melting point fell in the range of 345 to 347 °C.

Regarding `O=C1CC(c2ccccc2F)C(=O)N1` (centres undefined), the melting point was in the range of 97 to 99 °C.

`CN1CCC(C)(O)CC1` gave a melting point of 62 to 64 °C.

For `Cc1c(C(=O)O)nnn1-c1ccc(Br)cc1Cl`, the melting point was 163 to 165 °C.

`Cc1ccc(N)cc1S(=O)(=O)N1CCOCC1` returned a melting point of 186 to 188 °C.

`O=C(O)Cc1ccc(S(=O)(=O)Cl)cc1`: the melting point was 131 to 133 °C.

In turn, `Cc1c(NC(=S)Nc2c(C)n(C)n(-c3ccccc3)c2=O)c(=O)n(-c2ccccc2)n1C` showed a melting point of 93 to 95 °C.

Turning to `CC(=O)c1cnn(-c2ccc(F)cc2)c1C`, the melting point was in the range of 87 to 89 °C.

Consider `COC(=O)c1cc(C(C)(C)C)n[nH]1`, for which the melting point was 172 to 174 °C.

Take `CCOC(=O)c1oc2ccc(OC)cc2c1C`: the melting point lay in the range of 103 to 105 °C.

Take `CC(C)(C)OC(=O)Nc1ccc(C(=O)O)c(Cl)c1`: the melting point was in the range of 169 to 171 °C.

In the case of `CC(CS(C)(=O)=O)NC1CC1` (centres undefined), the melting point lay in the range of 39 to 41 °C.

The molecule `ClCc1cc2c(cc1Br)OCCCO2` gave a melting point of 75 to 77 °C.

`Cc1ccc(NCCc2ccc(Cl)cc2)nn1` came in with a melting point of 163 to 165 °C.

With `Cc1nc([N+](=O)[O-])cn1CC(=O)O`, the melting point lay within 244 to 246 °C.

As to `O=C(O)c1ccn(-c2cccc(Cl)c2)n1`, the melting point lay in the range of 143 to 145 °C.

On to `NC(=O)Cn1cc(NC(=O)OCC(F)(F)F)cn1`, for which the melting point lay in the range of 150 to 152 °C.

In the case of `CC(C)C(Br)C(=O)Nc1ccccc1Cl` (centres undefined), the melting point lay in the range of 114 to 116 °C.

On to `NC(=O)Nc1ccccc1-c1ccccc1`, for which the melting point is 155 to 157 °C.

With `O=C(O)c1cc2c(s1)-c1ccccc1CC2`, the melting point was in the range of 212 to 214 °C.

In turn, `Cn1cnc2cc(C=O)ccc21` yielded a melting point of 99 to 101 °C.

Turning to `CCOC(=O)Cn1[nH]cc(C(=O)OCC)c1=N`, the melting point lay in the range of 72 to 74 °C.

In turn, `CCc1ccc(S(C)(=O)=O)cc1C(=O)O` registered a melting point of 151 to 153 °C.

Molecule `O=C(O)c1c[nH]nc1-c1ccccc1` registered a melting point of 286 to 288 °C.

The molecule `NC(=NO)c1cccc(CN2CCOCC2)c1` showed a melting point of 155 to 157 °C.

`COC(=O)c1c[nH]c(=O)c(N)c1`: the melting point is 209 to 211 °C.

`OCCN1CCSCC1` had a melting point of 34 to 36 °C.

`Sc1nnc(Nc2ccccc2Cl)s1` had a melting point of 174 to 176 °C.

For `c1ccc(Cc2nnc3n2CCNC3)cc1`, the melting point was in the range of 111 to 113 °C.

`O=S(=O)(Cl)c1ccc(OCC(F)F)cc1` displayed a melting point of 42 to 44 °C.

Regarding `Nc1c2c(nn1-c1ccccc1)CCC2`, the melting point is 180 to 182 °C.

`CC1=NN(c2cc(C)ccc2C)C(=O)C1` returned a melting point of 164 to 166 °C.

On to `N#Cc1ccc(C(=O)N2CCOCC2)cc1`, for which the melting point lay within 144 to 146 °C.

With `CC(C)(C)c1ccc(-c2ccc(C(=O)O)o2)cc1`, the melting point fell in the range of 213 to 215 °C.

`CC(=O)OCc1ccc(Cl)cc1C#N`: the melting point fell in the range of 54 to 56 °C.

`COc1ccc(Br)cc1C(N)=S` registered a melting point of 143 to 145 °C.

In the case of `CS(=O)(=O)c1cccc(C(=O)c2ccc(F)cc2)c1`, the melting point lay within 66 to 68 °C.

For the molecule `N#Cc1cc(S(N)(=O)=O)ccc1Cl`, the melting point is 219 to 221 °C.

In turn, `CS(=O)(=O)N1CC(C(=O)O)Oc2ccccc21` (centres undefined) had a melting point of 167 to 169 °C.

`O=C(O)c1ccc2c(=O)[nH][nH]c(=O)c2c1`: the melting point lay within 250 to 252 °C.

As for `Cc1nnc2ccc(Cl)nn12`, the melting point is 103 to 105 °C.

The molecule `O=Cc1cc(Cl)cc(Cl)c1OC(F)F` gave a melting point of 51 to 53 °C.

`COCCOc1c(N)cccc1Cl` came in with a melting point of 56 to 58 °C.

Molecule `CC1CNc2ccccc2C(=O)N1` (centres undefined) registered a melting point of 189 to 191 °C.

Molecule `OCc1ncn(-c2ccccc2)n1` returned a melting point of 109 to 111 °C.

Take `O=C1CN(c2ccccc2)C(=O)N1`: the melting point lay within 190 to 192 °C.

Regarding `CCNC(=O)c1ccc(N)cc1`, the melting point lay within 73 to 75 °C.

Consider `N#Cc1ccc(OC(F)F)c(N)c1`, for which the melting point fell in the range of 86 to 88 °C.

Turning to `NCc1ccc(C(N)=O)cc1`, the melting point is 141 to 143 °C.

On to `COc1cc(C=O)ccc1OS(=O)(=O)c1cc(C)ccc1C`, for which the melting point lay within 82 to 84 °C.

For the molecule `O=C(O)c1ccc(Cl)c(NS(=O)(=O)c2ccc(F)cc2)c1`, the melting point is 211 to 213 °C.

`Nc1ccccc1Oc1ccccc1N` gave a melting point of 61 to 64 °C.

As usually defined, the melting point is the temperature, or range, at which the solid turns liquid.
